From US20090176817A1, “Method of Treatment of Diarrhea-Predominant Irritable Bowel Syndrome in a Subject” (priority 2005, published 2009)

Legend:
Assay type in all cases: in vivo, human
healthy subjects = experiment: Study S.241.2.106: colonic motility index; settings: for colonic motility index, Comparison to Placebo: Ratio: ANOVA; for colonic motility index: arith. mean
Protocol: The effect of cilansetron on colonic motility was evaluated in a randomized, double-blind, placebo-controlled, 3-way crossover study in 12 healthy male and female subjects (ITT population), aged 24-34 years. Subjects received cilansetron 4 mg, cilansetron 8 mg, or placebo orally TID for 7 days during each of the treatment periods, with a 7-day washout between periods. Colonic motility assessments were done on the last day of each treatment period, around the time of the last dose. Subjects were fasted for 12 hours prior to start of colonic assessments. Colonic motor activity was recorded from 30 minutes prior to dosing until 240 minutes postdose. A high-calorie meal was administered at 1 hour postdose and 1 mg neostigmine was administered intramuscularly at 2.5 hours postdose. The main objective of the assessments was to establish whether cilansetron was able to reduce colonic motor activity after meal ingestion and after neostigmine injection. The main parameter of interest was the motility index, which was measured in intervals of ten minutes for a total period of 150 minutes postprandially. The time intervals of major interest were the 30-minute interval after start of meal ingestion (91-120 minutes) and the 30-minute interval after neostigmine injection (181-210 minutes). An ANOVA was used to compare the motility indices between treatments.

[1] = tested on: non-constipated IBS patients; experiment: clinical; settings: linear regression
Protocol: (§1) Various covariates were screened during development of the population pharmacokinetic model, including age, height, weight, body surface area, body mass index, race, gender, smoking status, serum creatinine levels, serum creatinine clearance, total bilirubin levels, cilansetron dose, and concomitant medication usage. Some efficacy and safety parameters were also evaluated in this population analysis using correlation analyses. Efficacy parameters evaluated included overall relief of IBS symptoms (Responder or Non-Responder), intensity of abdominal pain, number of stools and stool consistency, symptoms of abdominal and rectal discomfort (straining, urgency, feeling of incomplete defecation, passage of mucus, bloating, and feeling of abdominal distension), and upper GI symptoms at Visit 5 (vomiting, heartburn, early satiety, postprandial fullness, sensation of prolonged digestion, and nausea). Safety parameters evaluated included the top ten most frequently observed adverse events (constipation, flatulence, nausea, abdominal pain, headache, dyspepsia, infection, gastrointestinal disorders, anorexia, and diarrhea).
(§2) A statistically significant negative correlation was found between exposure (AUC and Cmax at steady state) and some efficacy parameters including change in stool consistency (adjusted for baseline) and the experience of straining. Patients with higher exposure to cilansetron and/or its 4-hydroxy metabolites were more likely to have lower stool consistency scores (a tendency for harder stools) than patients with lower exposure. […] In addition, patients with higher exposure to cilansetron were more likely to experience straining.

clinical = settings: both sexes, human, in vivo
Protocol: as §1, §2

[2] = tested on: diarrhea-predominant IBS subjects; experiment: Study S241.3.006: interruption of activities assessment; settings: for Percentage of Subjects Who Worsened from Baseline: Interruption of Activities: S241.3.006, 2 mg TID, observed value
Text: Studies S24 1.3.OO6, S24 1.3.0 1 1, and S24 1.3.009 used the following efficacy measurements: • The subjects answered the following three questions with “yes” or “no” using a phone diary at the end of each week: • a) During the last week, did you experience adequate relief of your IBS symptoms, such as abdominal pain, abdominal discomfort, abnormal bowel habits? • b) During the last week, did you experience adequate relief of your abdominal pain and/or discomfort? • c) During the last week, did you experience adequate relief of your abnormal bowel habits? • The subjects rated the following symptoms using the phone diary at the end of each day: • abdominal pain/discomfort (five-point scale); • stool consistency (seven-point Bristol Stool Scale); • stool frequency (number of bowel movements each day); • urgency (five-point scale); • straining (yes or no); • feeling of incomplete defecation (yes or no); • bloating or feeling of abdominal distension (five-point scale). • In Studies S241 A006 and S241.3.009, subjects completed the IBS-QOL Survey at Baseline (Day 1) and at the end of treatment. In Study S24 1.3.0 1 1, subjects completed the IBS-QOL Survey at Baseline (Day 1), at the end of the three-month treatment period, and at the end of rerandomized treatment.
Other secondary efficacy parameters for all three studies included: • Responder rate for the weekly diary questions on adequate relief at each month, where a responder for a month (monthly responder) was defined as a subject who answered the weekly question with “yes” at least twice for that month. The responder rate was the percentage of responders within a treatment group. The all-month responder rate for the weekly diary questions on adequate relief was also evaluated, where an all-month responder was defined as a subject who answered the weekly question with “yes” at least twice for each month. The all-month responder rate was the percentage of all-month responders within a treatment group; • Adequate relief rate for the weekly diary questions was calculated for each subject as the number of weekly assessments with adequate relief (“yes”) divided by the total number of weekly assessments; • Percentage of subjects with adequate relief for the weekly diary questions at each week; • Daily diary questions regarding abdominal pain/discomfort (five-point scale), stool consistency (seven-point scale), stool frequency (number of bowel movements each day), straining (yes or no), urgency (five-point scale), feeling of incomplete evacuation (yes or no), and bloating or feeling of abdominal distention (five-point scale); • QOL data assessed by the IBS-QOL questionnaire; and • Question to determine the interruption of activities.

[3] = After Meal Ingestion, 4 mg TID oral 7 days
[4] = After Meal Ingestion, 8 mg TID oral 7 days
[5] = After Neostigmine, 4 mg TID oral 7 days
[6] = After Neostigmine, 8 mg TID oral 7 days

In the case of `Cc1nccn1C[C@H]1CCc2c(c3cccc4c3n2CCC4)C1=O` [Cilansetron, (R)-(−)-4,5,6,8,9,10-hexahydro-10-[(2-methyl-1H-imidazol-1-yl)methyl]-11H-pyrido-[3,2,1-jk]-carbazol-11-one], the “colonic motility index, Comparison to Placebo: Ratio” value (from here on “colonic motility index … Ratio”) (healthy subjects; [3]) is reported as 101%, the colonic motility index (healthy subjects; [3]) is reported as 20358 and the “colonic motility index … Ratio” value (healthy subjects; [4]) is reported as 106%. The colonic motility index (healthy subjects; [4]) was 23478, the “colonic motility index … Ratio” value (healthy subjects; [5]) was 192% and the colonic motility index (healthy subjects; [5]) was 50580. The “colonic motility index … Ratio” value (healthy subjects; [6]) was 162%, the colonic motility index (healthy subjects; [6]) was 48691 and the “Decrease in stool consistency score per 600 ng*h/mL AUC or 100 ng/mL Cmax” value [1] was 0.5 point. The AUC (clinical) was 0.36 µg·h/mL, the Cmax (clinical) was 0.065 µg/mL and the “Subjects “not at all or rarely” bothered by IBS symptoms” value ([2]; Endpoint) was 42%. For the same molecule, the “Subjects worsened from Baseline, interruption of activities” value ([2]; Month 1) was 8%, the “Percentage of Subjects Who Worsened from Baseline: Interruption of Activities” value (“Percentage of Subjects Who Worsened” below) ([2]; Month 1) was 8% and the “Percentage of Subjects Who Worsened” value ([2]; Month 2) was 5%. For the same molecule, the “Percentage of Subjects Who Worsened” value ([2]; Month 3) was 4%.
